This data set deals with CHIKV. It counts as cell-based, chikungunya virus.

With “s26120 (sense GGCCCTTCATCGATAGCTA; chemistry not given here) [reference compound]”, the Score_si2 was -0.97.
“Hs_PHF10_3 (CGGACAGTTCCAGGAATATTA; chemistry not given here)” gave a Score_si2 of 0.88.
On to “Hs_UMPS_1 (CACCGCATTGATACTATAATA; chemistry not given here)”, for which the Score_si4 stood at 1.35.
On the same count and under the same terms, the figure for “Hs_RRBP1_3 (sense CTGGCTGCAGGTGAAAGGAAA; chemistry not given here)” is 1.53.
“s26873 (sense CTTCGAGACCGGTTCAAGA; chemistry not given here)” registered a Score_si1 of 2.15.
Turning to “Hs_CALM2_5 (ACAAAGGAATTGGGAACTGTA; chemistry not given here)”, the Score_si4 came to 0.05.
“Hs_F25965_1 (CAGCGAGAACACGCCACTGTA; chemistry not given here)” gave a Score_si1 of 1.49.
On to “Hs_GRB10_4 (sense GTGAATTGTTGGAGAATGTAA; chemistry not given here)”, for which the Score_si3 came out at 0.73.
Same read-out and setting: the figure for “s31192 (GGAAGGACTTACTACTACA; chemistry not given here)” is 1.79.
As to “Hs_SDFR1_11 (sense TACATAAAGATGAGTAATATA; chemistry not given here) [reference compound]”, the Score_si4 is -1.37.
The substance “s31191 (GATAATCAGTTCAACTAAA; chemistry not given here)” came in with a Score_si2 of 1.84.
For “Hs_ZNF261_1 (AAGGTCTTATCTGAAAGGTAA; chemistry not given here) [reference compound]”, the Score_si1 is -2.35.
Substance “Hs_CLTC_12 (sense CCGGAGAGATTTCTTCGTGAA; chemistry not given here)” displayed a Score_si2 of 2.21.
The substance “Hs_FCGRT_1 (CTCGTCGTCACTAACAGTCAA; chemistry not given here)” registered a Score_si1 of 2.15.
Take “Hs_UIP1_3 (CTCGAGGGTCTGTATATCACA; chemistry not given here) [reference compound]”: the Score_si4 was 0.1.
“Hs_GSTP1_2 (sense CCAGATCTCCTTCGCTGACTA; chemistry not given here)” gave a Score_si1 of 2.46.
“s1523 (sense CCGGCATCTTTGCTACCTA; chemistry not given here)” registered a Score_si4 of 0.87.
Still for that read-out and setting: the value for “s38698 (GGATTCTTGTTGGACTAAT; chemistry not given here)” was -0.7.
With “Hs_AP3S2_2 (CAGGGCTTAGGCGCCCATAAA; chemistry not given here)”, the Score_si1 is listed as 1.97.
As for “s26801 (sense CCGAGAACCTCACAGAGAA; chemistry not given here)”, the Score_si1 is recorded as 2.26.
In turn, “Hs_PTPN6_5 (sense CCGGAACAAATGCGTCCCATA; chemistry not given here)” gave a Score_si4 of 1.05.
“Hs_TRAF2_2 (CAGAGTTATTAAACCATTCAA; chemistry not given here) [reference compound]” yielded a Score_si2 of -0.92.
As to “s31790 (GGCTGTTCCTGAGACTGCA; chemistry not given here)”, the Score_si4 stood at 0.92.
On the same count and under the same terms, the value for “s5570 (sense TGAACAAGATGGTATCAAA; chemistry not given here)” was -0.08.
The substance “Hs_PTBP1_5 (sense CACGCACATTCCGTTGCCTTA; chemistry not given here) [reference compound]” returned a Score_si2 of -1.23.
For “s18906 (sense GAAGGAATTTCATTTGACA; chemistry not given here)”, the Score_si3 stood at 1.68.
With “Hs_DC-UbP_1 (AAGGCAGTTAAGAAATAGATA; chemistry not given here)”, the Score_si2 stood at 1.13.
“s18269 (CCATTGCGGAGATCAAGAA; chemistry not given here)” yielded a Score_si4 of 0.18.
The substance “Hs_UQCRFS1_1 (CAGCATGATCTAGATCGAGTA; chemistry not given here)” yielded a Score_si1 of 3.18.
For “Hs_SAFB_1 (sense ACGGACTGTAGTAATGGATAA; chemistry not given here)”, the Score_si3 is 0.86.
“Hs_APPL_2 (CAGGAATTTCTACAATAATAA; chemistry not given here) [reference compound]” returned a Score_si1 of -2.3.
With “Hs_EP400_1 (CAGAATGATTTGGACATTGAA; chemistry not given here)”, the Score_si1 was determined as 2.29.
The same measure, in the same setting: the figure for “Hs_TMPIT_1 (sense CTGGTGGGTGTTCCATCACTA; chemistry not given here)” is 2.87.
With “Hs_GP1BB_4 (sense CGAGCTGGTGCTGACCGGCAA; chemistry not given here) [reference compound]”, the Score_si3 was -0.68.
On to “s24800 (sense CTATGGATGTTGATGTAGA; chemistry not given here)”, for which the Score_si2 came to 1.78.
In turn, “s35017 (AAGACAGGCTGATCAACTA; chemistry not given here)” displayed a Score_si3 of 0.94.
With “Hs_E2F3_1 (TTGCGTTACTTTAAGTACTAA; chemistry not given here) [reference compound]”, the Score_si1 is -2.09.
The substance “s37917 (GCCTCAGCTCAAACTCAAA; chemistry not given here)” yielded a Score_si2 of 1.72.
The substance “s5296 (sense GCTTCACCATCGAATCCAA; chemistry not given here)” gave a Score_si3 of 1.01.
The substance “s14705 (sense GCAGTTGAATTATCACAGT; chemistry not given here)” had a Score_si2 of 1.97.
For “s12470 (sense GGATGTGGACAACAAAGTA; chemistry not given here)”, the Score_si4 is 1.56.
In turn, “Hs_PD2_2 (CACCATTATTGTGAGCAGCAA; chemistry not given here)” registered a Score_si1 of 1.77.
“s3163 (CTATCTTGGGTTTACCGTA; chemistry not given here)”: the Score_si2 is 1.54.
Consider “Hs_RPS6KC1_3 (sense ACCCTGATGCTGTATAATGTA; chemistry not given here) [reference compound]”, for which the Score_si1 was -2.87.
On the same count and under the same terms, the figure for “Hs_NPEPL1_3 (CTGCAATGAGATGAACACCGA; chemistry not given here)” is 2.35; for “Hs_MRPS12_7 (TTCCATCAGGACCACTATTAA; chemistry not given here)” it is 1.99.
Take “s14080 (sense GAGTGGTCTTTTCAACACT; chemistry not given here)”: the Score_si2 was 1.38.
The substance “s31800 (CCACACTCATCTATCGCAA; chemistry not given here)” displayed a Score_si2 of 1.32.
Still for that read-out and setting: the figure for “Hs_COPS2_1 (sense CACGATATACTGCACTAGATA; chemistry not given here)” is 1.3.
Take “s18074 (CCTCGAGACTATACGGTTA; chemistry not given here) [reference compound]”: the Score_si4 is on record as -0.5.
Regarding “Hs_IQGAP1_1 (sense CTGGGAGATAATGCCCACTTA; chemistry not given here)”, the Score_si2 turned out to be 1.04.
Substance “s19089 (sense GGATAAGACAGTAACCCGA; chemistry not given here) [reference compound]” displayed a Score_si3 of -0.56.

These data come from PMC4865845, “A human genome-wide loss-of-function screen identifies effective chikungunya antiviral drugs” (Nature Communications, 2016).
